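Dose response: 5 concentrations. Exposure: 48 h. Format: 96-well plates. Endpoint: linear interpolation; highest concentration if not reached. At the TGI there is no net growth.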
Experiments:
Experiment in all cases: NCI tumour cell line growth inhibition, 48 h
HL-60(TB) leukemia = system: HL-60(TB) leukemia
NCI-H460 lung = system: NCI-H460 lung
SF-539 CNS = system: SF-539 CNS
DMS 273 small cell lung = system: DMS 273 small cell lung
MOLT-4 leukemia = system: MOLT-4 leukemia
UACC-62 melanoma = system: UACC-62 melanoma
TK-10 renal = system: TK-10 renal
SK-OV-3 ovarian = system: SK-OV-3 ovarian
XF 498 CNS = system: XF 498 CNS
UACC-257 melanoma = system: UACC-257 melanoma
LOX IMVI melanoma = system: LOX IMVI melanoma
SNB-78 CNS = system: SNB-78 CNS
HOP-62 NSCLC = system: HOP-62 NSCLC
SF-295 CNS = system: SF-295 CNS
MALME-3M melanoma = system: MALME-3M melanoma
SK-MEL-28 melanoma = system: SK-MEL-28 melanoma
M14 melanoma = system: M14 melanoma
CCRF-CEM leukemia = system: CCRF-CEM leukemia
HOP-92 NSCLC = system: HOP-92 NSCLC
SK-MEL-5 melanoma = system: SK-MEL-5 melanoma
DLD-1 colon = system: DLD-1 colon
UO-31 renal = system: UO-31 renal
SK-MEL-2 melanoma = system: SK-MEL-2 melanoma
LXFL 529 NSCLC = system: LXFL 529 NSCLC
K-562 leukemia = system: K-562 leukemia
KM20L2 colon = system: KM20L2 colon
EKVX NSCLC = system: EKVX NSCLC
OVCAR-4 ovarian = system: OVCAR-4 ovarian
A498 renal = system: A498 renal
OVCAR-5 ovarian = system: OVCAR-5 ovarian
NCI-H226 lung = system: NCI-H226 lung
M19-MEL melanoma = system: M19-MEL melanoma
COLO 205 colon = system: COLO 205 colon
HCT-116 colon = system: HCT-116 colon
SN12C renal = system: SN12C renal
CAKI-1 renal = system: CAKI-1 renal
RPMI-8226 leukemia = system: RPMI-8226 leukemia
NCI-H522 lung = system: NCI-H522 lung
SR leukemia = system: SR leukemia
NCI-H23 lung = system: NCI-H23 lung
U251 CNS = system: U251 CNS
SNB-19 CNS = system: SNB-19 CNS
SNB-75 CNS = system: SNB-75 CNS
OVCAR-3 ovarian = system: OVCAR-3 ovarian
786-0 renal = system: 786-0 renal
HOP-18 NSCLC = system: HOP-18 NSCLC
RXF 393 renal = system: RXF 393 renal
SF-268 CNS = system: SF-268 CNS
SW-620 colon = system: SW-620 colon
HCC-2998 colon = system: HCC-2998 colon
A549 NSCLC = system: A549 NSCLC
HCT-15 colon = system: HCT-15 colon
IGROV1 ovarian = system: IGROV1 ovarian
RXF-631 renal = system: RXF-631 renal
DMS 114 small cell lung = system: DMS 114 small cell lung
OVCAR-8 ovarian = system: OVCAR-8 ovarian
KM12 colon = system: KM12 colon
HT29 colon = system: HT29 colon
ACHN renal = system: ACHN renal
SN12K1 renal = system: SN12K1 renal
NCI/ADR-RES ovarian = system: NCI/ADR-RES ovarian
MCF7 breast = system: MCF7 breast
P388/ADR leukemia = system: P388/ADR leukemia
P388 leukemia = system: P388 leukemia

For `Cc1ccccc1C1OC(=O)c2ccc3ccccc3c21` (stereo unspecified), the TGI (HL-60(TB) leukemia) was 8.01 µM, the TGI (NCI-H460 lung) was 12.6 µM and the TGI (SF-539 CNS) was 13.4 µM. For the same molecule, the TGI (DMS 273 small cell lung) was 12.4 µM, the TGI (MOLT-4 leukemia) was 7.18 µM and the TGI (UACC-62 melanoma) was 6.97 µM. For the same molecule, the TGI (TK-10 renal) was > 31.6 µM, the TGI (SK-OV-3 ovarian) was 8.37 µM and the TGI (XF 498 CNS) was 9.69 µM. The TGI (UACC-257 melanoma) was 12.2 µM, the TGI (LOX IMVI melanoma) was 7.45 µM and the TGI (SNB-78 CNS) was 98.3 µM. For the same molecule, the TGI (HOP-62 NSCLC) was 5.35 µM, the TGI (SF-295 CNS) was > 31.6 µM and the TGI (MALME-3M melanoma) was 14 µM. For the same molecule, the TGI (SK-MEL-28 melanoma) was 10.1 µM, the TGI (M14 melanoma) was 10.9 µM and the TGI (CCRF-CEM leukemia) was 17.6 µM. For the same molecule, the TGI (HOP-92 NSCLC) was 49.9 µM, the TGI (SK-MEL-5 melanoma) was 13 µM and the TGI (DLD-1 colon) was 16.8 µM. It also gave a TGI (UO-31 renal) of 10.9 µM, a TGI (SK-MEL-2 melanoma) of 5.98 µM and a TGI (LXFL 529 NSCLC) of 15.1 µM. For the same molecule, the TGI (K-562 leukemia) was 19.5 µM, the TGI (KM20L2 colon) was 15.8 µM and the TGI (EKVX NSCLC) was 17.5 µM. The TGI (OVCAR-4 ovarian) was 19.2 µM, the TGI (A498 renal) was 8.51 µM and the TGI (OVCAR-5 ovarian) was > 31.6 µM. The TGI (NCI-H226 lung) was 12.2 µM, the TGI (M19-MEL melanoma) was 11.4 µM and the TGI (COLO 205 colon) was 2.28 µM. It also gave a TGI (HCT-116 colon) of 7.14 µM, a TGI (SN12C renal) of 18.3 µM and a TGI (CAKI-1 renal) of 88.4 µM. For the same molecule, the TGI (RPMI-8226 leukemia) was 5.43 µM, the TGI (NCI-H522 lung) was 4.89 µM and the TGI (SR leukemia) was 7.96 µM. The TGI (NCI-H23 lung) was 20.7 µM, the TGI (U251 CNS) was 13.3 µM and the TGI (SNB-19 CNS) was > 91.5 µM. The TGI (SNB-75 CNS) was 31.3 µM, the TGI (OVCAR-3 ovarian) was 16.2 µM and the TGI (786-0 renal) was 18.9 µM. The TGI (HOP-18 NSCLC) was 25.2 µM, the TGI (RXF 393 renal) was 6.95 µM and the TGI (SF-268 CNS) was 14.8 µM. For the same molecule, the TGI (SW-620 colon) was 21.7 µM, the TGI (HCC-2998 colon) was 12 µM and the TGI (A549 NSCLC) was 16.6 µM. The TGI (HCT-15 colon) was 9.44 µM, the TGI (IGROV1 ovarian) was > 31.6 µM and the TGI (RXF-631 renal) was 3.23 µM. The TGI (DMS 114 small cell lung) was 13.3 µM, the TGI (OVCAR-8 ovarian) was 12.8 µM and the TGI (KM12 colon) was 13.7 µM. The TGI (HT29 colon) was > 31.6 µM and the TGI (ACHN renal) was 28.6 µM.
With `CC(=O)Oc1cc2c(cc1OC(C)=O)OCC(c1ccc(C)cc1)C2` (stereo unspecified) the TGI (HL-60(TB) leukemia) was 6.56 µM, the TGI (NCI-H460 lung) was 39.1 µM and the TGI (SF-539 CNS) was 32 µM. For the same molecule, the TGI (DMS 273 small cell lung) was 48.5 µM, the TGI (MOLT-4 leukemia) was 54.6 µM and the TGI (UACC-62 melanoma) was 21.3 µM. The TGI (SK-OV-3 ovarian) was 112 µM, the TGI (XF 498 CNS) was 32.2 µM and the TGI (UACC-257 melanoma) was 40.3 µM. The TGI (SN12K1 renal) was 34 µM, the TGI (LOX IMVI melanoma) was 37.7 µM and the TGI (SNB-78 CNS) was 55.5 µM. The TGI (HOP-62 NSCLC) was 44.4 µM, the TGI (NCI/ADR-RES ovarian) was 58.3 µM and the TGI (SF-295 CNS) was 76.3 µM. It also gave a TGI (MALME-3M melanoma) of 32 µM, a TGI (SK-MEL-28 melanoma) of 39.3 µM and a TGI (CCRF-CEM leukemia) of 26.8 µM. The TGI (HOP-92 NSCLC) was 29 µM, the TGI (SK-MEL-5 melanoma) was 13.6 µM and the TGI (DLD-1 colon) was 45.9 µM. It also gave a TGI (UO-31 renal) of 38.3 µM, a TGI (MCF7 breast) of 50.4 µM and a TGI (SK-MEL-2 melanoma) of 34.1 µM. It also gave a TGI (K-562 leukemia) of 72.3 µM, a TGI (KM20L2 colon) of 60.5 µM and a TGI (EKVX NSCLC) of 42.1 µM. For the same molecule, the TGI (OVCAR-4 ovarian) was 25.7 µM, the TGI (A498 renal) was 15.3 µM and the TGI (OVCAR-5 ovarian) was 79 µM. It also gave a TGI (NCI-H226 lung) of 62.2 µM, a TGI (M19-MEL melanoma) of 23.5 µM and a TGI (COLO 205 colon) of 41.8 µM. The TGI (HCT-116 colon) was 41.5 µM, the TGI (SN12C renal) was 33.2 µM and the TGI (CAKI-1 renal) was 40.4 µM. The TGI (RPMI-8226 leukemia) was 63.1 µM, the TGI (NCI-H522 lung) was 6.86 µM and the TGI (NCI-H23 lung) was 32.1 µM. For the same molecule, the TGI (U251 CNS) was 38.8 µM, the TGI (SNB-19 CNS) was 124 µM and the TGI (SNB-75 CNS) was 32.3 µM. The TGI (P388/ADR leukemia) was 11.4 µM, the TGI (OVCAR-3 ovarian) was 41 µM and the TGI (P388 leukemia) was 20.8 µM. The TGI (HOP-18 NSCLC) was 62.1 µM, the TGI (RXF 393 renal) was 34.6 µM and the TGI (SF-268 CNS) was 34.2 µM. For the same molecule, the TGI (SW-620 colon) was 47.3 µM, the TGI (HCC-2998 colon) was 16.4 µM and the TGI (A549 NSCLC) was 64.6 µM. It also gave a TGI (HCT-15 colon) of 40.7 µM, a TGI (IGROV1 ovarian) of 42.9 µM and a TGI (DMS 114 small cell lung) of 18.7 µM. The TGI (OVCAR-8 ovarian) was 68.6 µM, the TGI (KM12 colon) was 58.6 µM and the TGI (HT29 colon) was 73.6 µM.

From PubChem BioAssay (NCI)
